Patent publication US20040214799A1, “Cancerous metastasis inhibitors containing carbacyclic phosphatidic acid derivatives” (priority 2001, published 2004)
“And” between values parts separate entries of the source, which are not always exact repeats. Equal values may be shown once.

Assays:
[1] = tested on: MM1 cells; assay: Effect on the proliferation of MM1 cells; type: cell-based, rat; settings: 12.5 μM or 25 μM cPA, 10% FBS, 24 hours and 72 hours
Method: 12.5 μM and 25 μM cPA were added to media containing 10% FBS, and then the cells were cultured under conditions of 37° C. and 5% CO2 for 24 hours and 72 hours. The number of the MM1 cells was counted using a hemocytometer.

[2] = tested on: Mouse malignant melanoma B16-F0; assay: B16 melanoma hematogenous lung metastasis model; type: in vivo; settings: for invasion of lymphocytes into metastatic lesions observed in cases: animals with metastatic lesions; for Metastatic nodules, Abdominal cavity Adipose tissue / Metastatic nodules, Abdominal cavity Adrenal gland / Metastatic nodules, Abdominal cavity Diaphragm / Metastatic nodules, Abdominal cavity Kidney / Metastatic nodules, Abdominal cavity Ovary / Metastatic nodules, Abdominal cavity Spleen / Metastatic nodules, Thoracic cavity / Metastatic nodules, Tissue around glandual clitoris: autopsy day 14, individual animals; for Number of lung tumor nodules, Range (mininum-maximum) / Number of mice having lung tumor nodules: day 14, N 6; for Number of lung tumor nodules: day 14, mean ± S.D.; for Number of lung tumor nodules / Number of mice having metastatic lesions: N 6; for Number of mice having metastatic lesions / Findings: Invasion of lymphocytes into melanoma metastatic lesion: lung histopathology; for Findings: Invasion of lymphocytes into melanoma metastatic lesion: individual animals; for Number of metastatic lesions per section, Large size: major diameter 0.65 mm ≦ and <1.3 mm; for Number of metastatic lesions per section, Large size / Number of metastatic lesions per section, Small size / Number of metastatic lesions per section, Total: mean ± S.D.; for Number of metastatic lesions per section, Small size: major diameter <0.65 mm, left lobe and posterior lobe; for Metastatic nodules, Abdominal cavity Adipose tissue: key: −: Absent; +: Present; for Metastatic nodules, Abdominal cavity Adrenal gland: key: −: Absent; +: Present; for Metastatic nodules, Abdominal cavity Diaphragm: key: −: Absent; +: Present; for Metastatic nodules, Abdominal cavity Kidney: key: −: Absent; +: Present; for Metastatic nodules, Abdominal cavity Ovary: key: −: Absent; +: Present; for Metastatic nodules, Abdominal cavity Spleen: key: −: Absent; +: Present; for Metastatic nodules, Thoracic cavity: key: −: Absent; +: Present; for Metastatic nodules, Tissue around glandual clitoris: key: −: Absent; +: Present
Method: cPA-19 and cPA-20 were used as test substances. 0.1 w/v % BSA/PBS which was prepared by dissolving Albumin, Bovine [essentially Fatty Acid Free] (BSA, Lot No. 89H7604, Sigma chemical company) in Ca^2+ and Mg^2+ free PBS (pH 7.2), was used as a medium After preparation, the solution was sterilized by filtration using a filter (0.22 μm, Millipore). Preparation was performed when used. cPA-5 was used as a positive control substance.
A medium was added in a volume required for a test substance or a positive control substance. Dissolution was performed by ultrasonication, thereby preparing a 0.16 mg/mL solution. The 0.16 mg/mL solution containing a test substance was diluted with a medium, thereby preparing 0.08 and 0.02 mg/mL solutions. All mixtures were prepared when used.
Mice were purchased from CHARLES RIVER JAPAN. INC. The line employed herein was C57BL/6NCrj (sexuality: female). The number of animals kept in stock was 60, and the age of these animals when kept in stock was 4 weeks. […] The environmental conditions for the test system were as follows:
Mouse malignant melanoma B16-F0 was used as a tumor cell. The cell was purchased from Dainippon Pharmaceutical Co., Ltd.
Dulbecco's Modified Eagle's Media containing 10% feral bovine serum and kanamycin were used for culture. […] A medium was added to stop the action of trypsin while pipetting, thereby preparing a cell suspension. The suspension was diluted by one-tenth with a medium for culturing, followed by subculturing until it reached a volume sufficient for grafting.
A cell suspension was prepared by the same technique as the subculture method. Specifically, the cells were washed with a Ca^2+ and Mg^2+ free phosphate buffer [PBS(−)], and then harvested. The harvested cells were suspended in a 10 mL of PBS(−), thereby preparing a cell suspension. The number of cells in the cell suspension was measured to obtain the total cell number. 50 μL of the cell suspension, 100 μL of 0.4% trypan blue liquid and 100 μL of PBS(−) were mixed, and then viable count was measured. The survival rate of the cells was calculated from the viable count and total cell number.
Based on the body weight on the day of the administration of the test substance, mice were grouped into 8 test groups according to the stratified continuous randomization method as shown in Table 2 below.
The mixture was administered via the caudal vein. The number of grafted cells was 5×10^5 cells/body. The dose of the test substance was 0.001, 0.004 or 0.008 mg/body, and the dose of the positive control substance was 0.008 mg/body.
On day 14 after the administration of the test substance, blood was collected from the posterior portion of the abdominal vena cava under isoflurane anesthesia. After the mice were sacrificed by blood-letting, the presence or absence of intrapleural and intraperitoneal metastatic nodules was confirmed. Lungs were extracted, and then fixed with a 10% neutral buffered formalin solution. The number of nodules resulting from lung metastasis was measured under a stereoscopic microscope (magnification: 10 times).
After the measurement of the number of nodules resulting from lung metastasis, samples were paraffin-embedded, and then thin sections were prepared. Hematoxylin eosinic-stained samples were prepared from these sections. The number of metastatic lesions in the certain portions of the left lobe and the posterior lobe was measured, and then the lesions were sorted by size. On the basis of the diameter (0.65 mm) of an object lens (×40), metastatic lesions with major diameters of less than 0.65 mm were classified as having a small size, and those with major diameters of between 0.65 mm or more and less than 1.30 mm were classified as having a large size. Furthermore, the degree of invasion of lymphocytes into metastatic lesions was confirmed qualitatively.
The representative value of each test group was denoted as mean±standard deviation (mean±S.D.). Differences in mean values were examined as follows.

[3] = 0.001 mg/body i.v., autopsy, 6 mice
[4] = 0.004 mg/body i.v., autopsy, 6 mice
[5] = 0.008 mg/body i.v., autopsy, 6 mice

In the case of carba-ΔPal-cPA [cPA-20], the “effect on MM1 cell proliferation (in words)” value [1] is reported as “showed proliferation suppressing activity”, the “invasion of lymphocytes into metastatic lesions observed in cases” value ([2]; 0.001 mg/body i.v.) is reported as 1 out of 4 and the “Metastatic nodules, Abdominal cavity Adipose tissue” value ([2]; 0.001 mg/body i.v.) is reported as “−”. For the same substance, the “Metastatic nodules, Abdominal cavity Adrenal gland” value ([2]; 0.001 mg/body i.v.) was “−”, the “Metastatic nodules, Abdominal cavity Diaphragm” value ([2]; 0.001 mg/body i.v.) was “− (5×) and +” and the “Metastatic nodules, Abdominal cavity Kidney” value ([2]; 0.001 mg/body i.v.) was “−”. For the same substance, the “Metastatic nodules, Abdominal cavity Ovary” value ([2]; 0.001 mg/body i.v.) was “− (5×) and +”, the “Metastatic nodules, Abdominal cavity Spleen” value ([2]; 0.001 mg/body i.v.) was “− (5×) and +” and the “Metastatic nodules, Thoracic cavity” value ([2]; 0.001 mg/body i.v.) was “− (5×) and +”. The “Metastatic nodules, Tissue around glandual clitoris” value ([2]; 0.001 mg/body i.v.) was “− (5×) and +”, the “cases with metastatic nodules in the diaphragm” value [2, 3] was 1 case and the “cases with metastatic nodules in the ovary” value [2, 3] was 1 cases. For the same substance, the “cases with metastatic nodules in the spleen” value (“cases … in the spleen” below) [2, 3] was 1 case, the “cases with metastatic nodules in the thoracic cavity” value [2, 3] was 1 case and the “cases with metastatic nodules in tissue around the glandual clitoris” value [2, 3] was 1 case. For the same substance, the “Number of lung tumor nodules, Range (mininum-maximum)” value (“Number of lung tumor nodules, Range” for short) ([2]; 0.001 mg/body i.v.) was 17-112, the “Number of mice having lung tumor nodules” value ([2]; 0.001 mg/body i.v.) was 6 and the “Number of lung tumor nodules” value ([2]; 0.001 mg/body i.v.) was 58 ± 40. The “Number of mice having metastatic lesions” value ([2]; 0.001 mg/body i.v.) was 4, the “Findings: Invasion of lymphocytes into melanoma metastatic lesion” value ([2]; 0.001 mg/body i.v.) was “− (3×) and ++” and the “Number of metastatic lesions per section, Large size” value (“Number … per section, Large size” below) ([2]; 0.001 mg/body i.v.) was 1.2 ± 1.3. The “Number of metastatic lesions per section, Small size” value (“Number … per section, Small size” below) ([2]; 0.001 mg/body i.v.) was 3.2 ± 3.5, the “Number of metastatic lesions per section, Total” value (“Number … per section, Total” below) ([2]; 0.001 mg/body i.v.) was 4.3 ± 4.6 and the “number of metastatic nodules of B16-F0 in the lungs versus medium group (in words)” value ([2]; 0.004 mg/body i.v.) was “significant decrease in the number of metastatic nodules”. For the same substance, the “invasion of lymphocytes into metastatic lesions observed in cases” value ([2]; 0.004 mg/body i.v.) was “no invasions were observed in 1 case”, the “Metastatic nodules, Abdominal cavity Adipose tissue” value ([2]; 0.004 mg/body i.v.) was “−” and the “Metastatic nodules, Abdominal cavity Adrenal gland” value ([2]; 0.004 mg/body i.v.) was “−”. The “Metastatic nodules, Abdominal cavity Diaphragm” value ([2]; 0.004 mg/body i.v.) was “−”, the “Metastatic nodules, Abdominal cavity Kidney” value ([2]; 0.004 mg/body i.v.) was “−” and the “Metastatic nodules, Abdominal cavity Ovary” value ([2]; 0.004 mg/body i.v.) was “−”. For the same substance, the “Metastatic nodules, Abdominal cavity Spleen” value ([2]; 0.004 mg/body i.v.) was “− (5×) and +”, the “Metastatic nodules, Thoracic cavity” value ([2]; 0.004 mg/body i.v.) was “−” and the “Metastatic nodules, Tissue around glandual clitoris” value ([2]; 0.004 mg/body i.v.) was “−”. For the same substance, the “cases … in the spleen” value [2, 4] was 1 case, the “metastatic nodules in the thoracic cavity” value [2, 4] was “no metastatic nodules were observed” and the “Number of lung tumor nodules, Range” value ([2]; 0.004 mg/body i.v.) was 0-4. The “Number of mice having lung tumor nodules” value ([2]; 0.004 mg/body i.v.) was 2 &, the “Number of lung tumor nodules” value ([2]; 0.004 mg/body i.v.) was 1 ± 2 and the “Number of mice having metastatic lesions” value ([2]; 0.004 mg/body i.v.) was 1 &&. The “Findings: Invasion of lymphocytes into melanoma metastatic lesion” value ([2]; 0.004 mg/body i.v.) was “−”, the “Number … per section, Large size” value ([2]; 0.004 mg/body i.v.) was 0 ± 0!! and the “Number … per section, Small size” value ([2]; 0.004 mg/body i.v.) was 0.2 ± 0.4. The “Number … per section, Total” value ([2]; 0.004 mg/body i.v.) was 0.2 ± 0.4!!, the “metastasis / number of metastatic nodules in the lungs versus medium group (in words)” value ([2]; 0.008 mg/body i.v.) was “almost completely suppressed metastasis” and the “Metastatic nodules, Abdominal cavity Adipose tissue” value ([2]; 0.008 mg/body i.v.) was “−”. For the same substance, the “Metastatic nodules, Abdominal cavity Adrenal gland” value ([2]; 0.008 mg/body i.v.) was “−”, the “Metastatic nodules, Abdominal cavity Diaphragm” value ([2]; 0.008 mg/body i.v.) was “−” and the “Metastatic nodules, Abdominal cavity Kidney” value ([2]; 0.008 mg/body i.v.) was “−”. The “Metastatic nodules, Abdominal cavity Ovary” value ([2]; 0.008 mg/body i.v.) was “−”, the “Metastatic nodules, Abdominal cavity Spleen” value ([2]; 0.008 mg/body i.v.) was “− (5×) and +” and the “Metastatic nodules, Thoracic cavity” value ([2]; 0.008 mg/body i.v.) was “−”. The “Metastatic nodules, Tissue around glandual clitoris” value ([2]; 0.008 mg/body i.v.) was “−”, the “cases … in the spleen” value [2, 5] was 1 case and the “metastatic nodules in the thoracic cavity” value [2, 5] was “no metastatic nodules were observed”. The “Number of lung tumor nodules, Range” value ([2]; 0.008 mg/body i.v.) was 0-1, the “Number of mice having lung tumor nodules” value ([2]; 0.008 mg/body i.v.) was 1 && and the “Number of lung tumor nodules” value ([2]; 0.008 mg/body i.v.) was 0 ± 0. For the same substance, the “Number of mice having metastatic lesions” value ([2]; 0.008 mg/body i.v.) was 0 &&, the “Number … per section, Large size” value ([2]; 0.008 mg/body i.v.) was 0 ± 0!! and the “Number … per section, Small size” value ([2]; 0.008 mg/body i.v.) was 0 ± 0!. The “Number … per section, Total” value ([2]; 0.008 mg/body i.v.) was 0 ± 0!!, the “number of mice having intrapleural or intraperitoneal metastatic nodules, dose dependence (in words)” value ([2]; 0.001, 0.004 and 0.008 mg/body i.v.) was “decreased as the dose increased” and the “action of suppressing the lung metastasis of B16-F0 compared with cPA-5” value ([2]; 0.004 and 0.008 mg/body i.v.) was “stronger than that of cPA-5”.
